Legend:
[1] = test system: Cloudman S-91 mouse melanoma cells (sub-clone M-3); experiment: Annexin V-FITC/propidium iodide apoptosis assay in melanoma cells; type: cell-based
Protocol: Cloudman S-91 mouse melanoma cells (sub-clone M-3, CCL 53.1; American Type Culture Collection, Rockville, Md.) were grown in RMPI medium supplemented with 10% fetal bovine serum (Invitrogen, Inc) and 5% penicillin-streptomycin (Invitrogen, Inc). Mouse breast cancer cells (66Cl-1; American Type Culture Collection, Rockville, Md.) that are estrogen-receptor negative were grown in DMEM medium supplemented with 10% fetal bovine serum (Invitrogen, Inc) and 5% penicillin/streptomycin (Invitrogen, Inc). Human T-cell leukemic lymphocytes (CEM; American Type Culture Collection, Rockville, Md.) were grown in MEM medium supplemented with 7% fetal calf serum. Cultures were passaged twice a week.
Early and late apoptosis was assessed with the Annexin V-FITC Apoptosis Detection Kit from PharMingen (Becton-Dickinson, San Diego, Calif.). Images were obtained at the Center for Cell Analysis and Modeling, University of Connecticut Health Center, Farmington, Conn., with an Axioplan CCD Microscope equipped with a 40×1.3 NA FL objective lens and Photometrics PXL-EEV37 high speed digital cooled CCD camera via Metamorph image acquisition and analysis software (Universal Imaging Corp., Downington, Pa.).
M3 Cloudman melanoma cells were plated into culture dishes containing RPMI medium. After 24 hour media was changed to control medium (no drug) or to media containing different concentrations of methyl sulfone (1-10% methyl sulfone in RPMI medium). Cells were examined by live cell video microscopy immediately after adding drug and every 24 hours up to 144 hours.
Briefly, melanoma cells (Cloudman M3 cell line) were plated at 10^5 cells/ml in RPMI medium. After 24 hours, medium was replaced with RPMI containing different concentrations (grams/volume) of MMS, MES and EES. After 24 hours, apoptosis was assayed using the Becton-Dickinson Annexin V-FITC/Propidium Iodide Kit and a Nikon fluorescent microscope as described by the manufacturer.

[2] = test system: normal lymphocytes (T-cells) from a healthy volunteer; experiment: Apoptosis of normal T-cell lymphocytes by Flow Cytometry; type: cell-based, human
Source text: Normal T-cell lymphocytes were obtained from a blood sample of a healthy volunteer. Blood samples were obtained with IRB approval and with the volunteer signing an Informed Consent Form. White blood cells were separated from red blood cells using a Ficoll gradient. Flow cytometry with antibodies against CD3 and CD4 was used to identify T-cell lymphocytes (Flow Cytometry Facility, University of Connecticut Health Center, Farmington, Conn.).
Blood was drawn from healthy volunteers and white blood cells (e.g., lymphocytes, neutrophils) were enriched using Ficoll-Plaque. Cells were incubated in Petri dishes containing MEM with 7% fetal calf serum in a CO2 (5%) incubator at 37° C.; Methyl sulfone was present at concentrations of 0, 3, 6, or 10%. After 20 hours, cells were incubated with antibodies specific to T-lymphocytes (CD3 and CD4 T-cells), B-lymphocytes (B-cells) and neutrophils, and the percent of apoptotic cells was determined by Flow Cytometry. This is a technique that identifies specific cell types (e.g., CD3 T-cells, CD4 T-cells, B-cells, neutrophils) within a mixed population of blood cells, and then determines whether the cells are alive or apoptotic.
After 20 hours, cells were incubated with fluorescent antibodies to identify T-cells, B-cells and neutrophils, and then processed by Flow Cytometry (FIG. 15).

methyl sulfone
apoptosis of melanoma cells ([1]; 6% methyl sulfone, 24 hours): induced into apoptosis
apoptosis of M3 cells compared with MES or EES ([1]; 24 hours, especially at less than 5%): significantly less apoptosis
window of concentrations between killing cancer cells and harming normal cells ([1]; conclusion from FIGS. 16 and 17): wide window
methyl sulfone concentration at which melanoma cells became apoptotic ([1]; melanoma cells, FIG. 1 legend): over 2%
viability of normal lymphocytes (T-cells) ([2]; 10% methyl sulfone, 20 hours): remained viable
T-cells from the healthy volunteer induced into apoptosis ([2]; summary in the description, concentration not given): less than 10%

Source: patent US10363229B2, “Methods and compositions for the treatment of cancer” (priority 2009, dated 2019)
